Experiments:
BT-474 = conditions: 72 h
In short: (§1)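 Viability of breast cancer cell lines was measured with CellTiter-Blue after 72 h of incubation on compound-loaded 384-well plates. Cells were seeded in 20 µl onto compound dissolved in 5 µl medium, and 2.5 µl reagent was added for 2 h at 37 °C before reading at 560/590 nm. EC50 was fitted from percent-inhibition dose-response data censored at the highest concentration, normalised per plate to vehicle and a positive kill control, with zero drug sensitivity score rows dropped.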

HCC1937 = conditions: 72 h
In short: as §1

Hs578T = conditions: 72 h
In short: as §1

MDA-MB-231 [1] = conditions: 72 h
In short: as §1

MDA-MB-468 [2] = conditions: 72 h
In short: as §1

SK-BR-3 = conditions: 72 h
In short: as §1

CAL-51 [3] = assay: normalised response (% of control), CellTiter-Glo; higher = more viable cells (100 = DMSO, 0 = benzethonium chloride kill control); conditions: incubation time: 72 h
In short: (§2)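 Values are normalised signals, each belonging to one concentration of the series. Breast cancer cells (20 µl suspension) were seeded into 384-well plates with compound at 5 concentrations in 10-fold steps over a compound-specific 10,000-fold range and incubated 72 h. Readouts were CellTox Green fluorescence (485/520 nm), then CellTiter-Glo luminescence after 10 min at room temperature, with each plate set to 0.1 % DMSO as 100 and a positive kill control as 0.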

MDA-MB-231 [4] = assay: as above; conditions: incubation time: 72 h
In short: as §2

MFM-223 = assay: as above; conditions: incubation time: 72 h
In short: as §2

HDQ-P1 [5] = conditions: 72 h
In short: (§3)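 Seeding of breast cancer cell lines (20 µl suspension) was done into 384-well plates pre-loaded with compound at 5 concentrations, 10-fold apart, covering a compound-specific 10,000-fold range. The plates were incubated for 72 h, read for CellTox Green fluorescence (485/520 nm), and then read for CellTiter-Glo luminescence after 10 min at room temperature. Every plate was normalised to 0.1 % DMSO and a positive kill control. Curve fitting gave the EC50, censored at the top concentration.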

CAL-120 = conditions: 72 h
Description: (§4)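 Drug sensitivity and resistance testing (DSRT) of breast cancer cell lines in 384-well plates, 5 concentrations in 10-fold dilutions over a compound-specific 10,000-fold range. After 72 h, cytotoxicity was read by CellTox Green fluorescence and viability by CellTiter-Glo luminescence (multiplexed), normalised to DMSO and benzethonium chloride controls. EC50 is the inflection point of the fitted dose-response curve (bottom asymptote free, so it can be relative for partial curves) and is censored at the highest tested concentration. Rows with DSS 0 (no meaningful response) were excluded.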

CAL-51 [6] = conditions: 72 h
Description: as §4

MDA-MB-231 [7] = conditions: 72 h; remark: listed apart in the source
Description: as §4

MDA-MB-468 [8] = conditions: 72 h; remark: listed apart in the source
Description: as §4

HDQ-P1 [9] = conditions: 72 h; remark: listed apart in the source
Description: as §4

MDA-MB-453 = conditions: 72 h
In short: as §3

Cn1cc(CNCC2CCN(c3ncc(C(=O)NO)cn3)CC2)c2ccccc21
EC50, CellTiter-Blue viability (BT-474): 0.017 µM | EC50, CellTiter-Blue viability (HCC1937): 0.0336 µM | EC50, CellTiter-Blue viability (Hs578T): 0.0651 µM | EC50, CellTiter-Blue viability (MDA-MB-231 [1]): 0.0478 µM | EC50, CellTiter-Blue viability (MDA-MB-468 [2]): 0.0389 µM | EC50, CellTiter-Blue viability (SK-BR-3): 0.00533 µM

O=C(NC[C@H](O)CO)c1ccncc1Nc1ccc(I)cc1F
EC50, CellTiter-Blue viability (MDA-MB-231 [1]): 0.0197 µM

COc1ccc(-c2cc3c(C)nc(N)nc3n([C@H]3CC[C@H](OCCO)CC3)c2=O)cn1 (1000 nM)
normalised response (CAL-51 [3]): 10% | normalised response (MDA-MB-231 [4]): 24.7% | normalised response (MFM-223): 26.2%

O=C(Nc1c[nH]nc1-c1nc2ccc(CN3CCOCC3)cc2[nH]1)NC1CC1 [AT9283]
EC50, CellTiter-Glo (HDQ-P1 [5]): 0.303 µM | EC50, CellTiter-Blue viability (BT-474): 1.63 µM | EC50, CellTiter-Blue viability (HCC1937): 0.257 µM | EC50, CellTiter-Blue viability (Hs578T): 0.337 µM | EC50, CellTiter-Blue viability (MDA-MB-231 [1]): 0.503 µM | EC50, CellTiter-Blue viability (MDA-MB-468 [2]): 0.841 µM | EC50, CellTiter-Blue viability (SK-BR-3): 0.267 µM | EC50, CellTox Green (CAL-120): 0.192 µM | EC50, CellTox Green (CAL-51 [6]): 0.00088 µM | EC50, CellTox Green (MDA-MB-231 [7]): 0.0246 µM | EC50, CellTox Green (MDA-MB-468 [8]): 0.00051 µM

COc1cc(CCc2cc(NC(=O)c3ccc(N4CC(C)NC(C)C4)cc3)n[nH]2)cc(OC)c1 (centres undefined) [AZD4547]
EC50, CellTox Green (CAL-120): > 1 µM

COc1cc(CCc2cc(NC(=O)c3ccc(N4CC(C)NC(C)C4)cc3)n[nH]2)cc(OC)c1 (centres undefined) [AZD4547] (100 nM)
normalised response (CAL-51 [3]): 91.4% | normalised response (MDA-MB-231 [4]): 106% | normalised response (MFM-223): 53.1%

CCC/C=C/C=C/C(=O)O[C@H]1/C(=C/C(=O)OC)C[C@H]2C[C@H]([C@@H](C)O)OC(=O)C[C@H](O)C[C@@H]3C[C@H](OC(C)=O)C(C)(C)[C@](O)(C[C@@H]4C/C(=C/C(=O)OC)C[C@H](/C=C/C(C)(C)[C@]1(O)O2)O4)O3 [Bryostatin 1]
EC50, CellTiter-Blue viability (SK-BR-3): 0.155 µM | EC50, CellTox Green (HDQ-P1 [9]): 0.0009 µM

CCC/C=C/C=C/C(=O)O[C@H]1/C(=C/C(=O)OC)C[C@H]2C[C@H]([C@@H](C)O)OC(=O)C[C@H](O)C[C@@H]3C[C@H](OC(C)=O)C(C)(C)[C@](O)(C[C@@H]4C/C(=C/C(=O)OC)C[C@H](/C=C/C(C)(C)[C@]1(O)O2)O4)O3 [Bryostatin 1] (10 nM)
normalised response (CAL-51 [3]): 69.1% | normalised response (MDA-MB-231 [4]): 89.2% | normalised response (MFM-223): 108%

CO[C@@H](C(=O)N1Cc2[nH]nc(NC(=O)c3ccc(N4CCN(C)CC4)cc3)c2C1)c1ccccc1 [Danusertib] (1000 nM)
normalised response (CAL-51 [3]): 59.9% | normalised response (MDA-MB-231 [4]): 74.7% | normalised response (MFM-223): 43.2%

Cc1nc(Nc2ncc(C(=O)Nc3c(C)cccc3Cl)s2)cc(N2CCN(CCO)CC2)n1 [Dasatinib] (100 nM)
normalised response (CAL-51 [3]): 51.6% | normalised response (MDA-MB-231 [4]): 43.8% | normalised response (MFM-223): 88.5%

O=S(=O)(c1cccc2cnccc12)N1CCCNCC1 [Fasudil]
EC50, CellTiter-Glo (MDA-MB-453): 27.4 µM

CS(=O)(=O)N1CCN(Cc2cc3nc(-c4cccc5[nH]ncc45)nc(N4CCOCC4)c3s2)CC1 [GDC-0941]
EC50, CellTiter-Blue viability (BT-474): 0.77 µM | EC50, CellTiter-Blue viability (HCC1937): 0.958 µM | EC50, CellTiter-Blue viability (Hs578T): 1.46 µM | EC50, CellTiter-Blue viability (MDA-MB-231 [1]): 2.24 µM | EC50, CellTiter-Blue viability (MDA-MB-468 [2]): 1.65 µM | EC50, CellTiter-Blue viability (SK-BR-3): 0.158 µM

Cc1c(CN2CCN(C(=O)[C@H](C)O)CC2)sc2c(N3CCOCC3)nc(-c3cnc(N)nc3)nc12 [GDC-0980] (1000 nM)
normalised response (CAL-51 [3]): 30.9% | normalised response (MDA-MB-231 [4]): 52% | normalised response (MFM-223): 35.8%

Nc1cccc2c1CN(C1CCC(=O)NC1=O)C2=O (centres undefined) [Lenalidomide] (1000 nM)
normalised response (CAL-51 [3]): 99% | normalised response (MDA-MB-231 [4]): 105% | normalised response (MFM-223): 97.6%

From the supplement of paper PMC4862054
